Experiment [1] addresses Sigma non-opioid intracellular receptor 1 (Homo sapiens) (UniProt Q99720). Conditions: Cavia porcellus; 200 nM.
For experiment [2] the target is unchanged. The following applies: Cavia porcellus; 1 uM.
Experiment [3] shares this target. The following applies: Cavia porcellus; 0.1 uM.
The target is the same in experiment [4]. Conditions: Cavia porcellus; 0.1 uM. This is another data set of the same source.
For experiment [5] the target is unchanged. Conditions: Cavia porcellus; 5 uM.
Experiment [6] has the same target. The following applies: Cavia porcellus; 0.1 uM. The source holds these as a separate data set.
Description: Maximum binding capacity against Sigma opioid receptor type 2 at 0.1 uM BNIT
For experiment [7] the target is unchanged. The following applies: Cavia porcellus; 0.1 uM. This is another data set of the same source.
Description: Maximum binding capacity against Sigma opioid receptor type 1 at 0.1 uM BNIT

Sequence of Sigma non-opioid intracellular receptor 1 (Homo sapiens) (Q99720 whole entry): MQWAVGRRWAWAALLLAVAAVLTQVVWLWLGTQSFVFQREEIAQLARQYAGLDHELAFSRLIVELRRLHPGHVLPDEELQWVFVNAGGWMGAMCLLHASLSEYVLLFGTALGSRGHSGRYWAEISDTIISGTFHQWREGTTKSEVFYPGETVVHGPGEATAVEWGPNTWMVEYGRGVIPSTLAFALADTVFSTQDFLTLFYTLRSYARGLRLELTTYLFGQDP

In turn, `CC(C)=CCN1CC[C@]2(C)c3cc(O)ccc3C[C@H]1[C@H]2C` returned a Bmax in experiment [1] of 1120 fmol/mg.

Turning to `Cc1ccccc1NC(=N)Nc1ccccc1C`, the Bmax came to 1010 fmol/mg in experiment [2] and 957 fmol/mg in experiment [5]. The compound also registered a Kd1 in experiment [3] of 12.8 nM. Further, the Kd2 in experiment [4] worked out at 21.4 nM. Besides, the Bmax2 in experiment [6] is 1330. Moreover, the Bmax1 in experiment [7] turned out to be 674.

These data come from ChEMBL document CHEMBL1135473, “Synthesis of (+)-cis-N-(4-isothiocyanatobenzyl)-N-normetazocine, an isothiocyanate derivative of N-benzylnormetazocine as acylant agent for the sigma(1) receptor” (J Med Chem, 2002).
